System: E. coli MG1655
Test: not given
Format: cell-based, Escherichia coli
Conditions: not given

Compound | suitability as nitrogen source (growth, purple color)
N[C@@H](CS)C(=O)O [L-cysteine] | not suitable

System: HL-60 cells
Test: Effect of 10 mM citric acid on HL-60 energy utilization
Format: cell-based, human
Conditions: not given

Compound | cell activity in the presence of citric acid, in words
O=C1O[C@@H]([C@H](O)CO)[C@H](O)[C@H]1O [D-galactonic acid-γ-lactone] | capable of overcoming the antiproliferative effects of citric acid
O=C1O[C@H]([C@@H](O)CO)[C@@H](O)[C@@H]1O [L-galactonic acid γ-lactone] | capable of overcoming the antiproliferative effects of citric acid

Same assay, conditions: 10 mM citric acid

Compound | cell activity, % of the control without citric acid
COC(=O)CCC(=O)O [Mono-methyl succinate] | up to 210%

System: ten strains of E. coli
Test: not given
Format: cell-based, Escherichia coli
Conditions: not given

Compound | carbon source utilization | carbon source utilization (text)
O=P(O)(O)OCC(O)CO (racemic) [D,L-α-glycerol phosphate] | + and − | –
O=C1O[C@@H]([C@H](O)CO)[C@H](O)[C@H]1O [D-galactonic acid-γ-lactone] | − and + | negative
O=C(CO)[C@@H](O)[C@H](O)[C@H](O)COP(=O)(O)O [Fructose-6-phosphate] | + | –
O=P(O)(O)O[C@H]1O[C@H](CO)[C@@H](O)[C@H](O)[C@H]1O [Glucose-1-phosphate] | + | –
O=C[C@H](O)[C@@H](O)[C@H](O)[C@H](O)COP(=O)(O)O [Glucose-6-phosphate] | + | –
O=C1O[C@H]([C@@H](O)CO)[C@@H](O)[C@@H]1O [L-galactonic acid γ-lactone] | + | –
COC(=O)CCC(=O)O [Mono-methyl succinate] | + | –

System: E. coli MG1655
Test: not given
Format: cell-based, Escherichia coli
Conditions: not given
Remark: another data set of the same source

Compound | suitability as phosphorus source (growth, purple color) | suitability as sulfur source (growth, purple color)
O=P(O)(O)OCC(O)CO (racemic) [D,L-α-glycerol phosphate] | positive | –
CCCCCCCCCCCCS(=O)(=O)O [1-dodecane-sulfonic acid] | – | not suitable
NCCP(=O)(O)O [2-aminoethyl phosphonate] | weak positive | –
O=C(O)C(CO)OP(=O)(O)O (stereo not drawn) [2-phosphoglyceric acid] | positive | –
O=CC[C@@H](O)[C@H](O)[C@H](O)COP(=O)(O)O [2′-deoxyglucose 6-phosphate] | positive | –
O=C(O)[C@H](O)[C@@H](O)[C@H](O)[C@H](O)COP(=O)(O)O [6-phosphogluconic acid] | positive | –
O=C(CO)[C@@H](O)[C@H](O)[C@H](O)COP(=O)(O)O [Fructose-6-phosphate] | positive | –
O=P(O)(O)O[C@H]1O[C@H](CO)[C@@H](O)[C@H](O)[C@H]1O [Glucose-1-phosphate] | positive | –
O=C[C@H](O)[C@@H](O)[C@H](O)[C@H](O)COP(=O)(O)O [Glucose-6-phosphate] | positive | –
N[C@@H](CS(=O)(=O)O)C(=O)O [L-cysteic acid] | – | positive
N[C@@H](CS(=O)O)C(=O)O [L-cysteine sulphinic acid] | – | positive
N[C@@H](CS)C(=O)O [L-cysteine] | – | positive
N[C@@H](CSCSC[C@H](N)C(=O)O)C(=O)O [L-djenkolic acid] | – | positive
CS(=O)(=O)CC[C@H](N)C(=O)O [L-methionine sulfone] | – | not suitable
C[S+]([O-])CC[C@H](N)C(=O)O (stereo partly drawn) [L-methionine sulfoxide] | – | positive
CC(=O)N[C@@H](CS)C(=O)O [N-acetyl cysteine] | – | not suitable
N[C@H](COP(=O)(O)O)C(=O)O [O-phospho-D-serine] | positive | –
N[C@H](Cc1ccc(OP(=O)(O)O)cc1)C(=O)O [O-phospho-D-tyrosine] | positive | –
N[C@@H](COP(=O)(O)O)C(=O)O [O-phospho-L-serine] | positive | –
C[C@@H](OP(=O)(O)O)[C@H](N)C(=O)O [O-phospho-L-threonine] | positive | –
N[C@@H](Cc1ccc(OP(=O)(O)O)cc1)C(=O)O [O-phospho-L-tyrosine] | positive | –
CSC[C@H](N)C(=O)O [S-methyl-L-cysteine] | – | weak positive

Compound | suitability as phosphorus source (growth, purple color) | suitability as sulfur source (growth, purple color)
Nc1ncnc2c1ncn2C1OC(CO)C2OP(=O)(O)OC21 (stereo not drawn) [adenosine 2′:3′-cyclic monophosphate] | not suitable | –
O=C[C@@H](O)[C@H](O)[C@H](O)COP(=O)(O)O [arabinose 5-phosphate] | positive | –
N[C@@H](CCSC[C@H](N)C(=O)O)C(=O)O [cystathionine] | – | positive
Nc1ccn([C@@H]2O[C@H](CO)C3OP(=O)(O)O[C@@H]32)c(=O)n1 (stereo partly drawn) [cytidine 2′:3′-cyclic monophosphate] | positive | –
Nc1ccn([C@@H]2O[C@@H]3COP(=O)(O)O[C@H]3[C@H]2O)c(=O)n1 [cytidine 3′:5′-cyclic monophosphate] | not suitable | –
OP(O)(=S)S [dithiophosphate] | positive | positive
O=C(COP(=O)(O)O)[C@@H](O)[C@H](O)[C@H](O)CO [fructose 1-phosphate] | positive | –
N[C@H]1C(OP(=O)(O)O)O[C@H](CO)[C@@H](O)[C@@H]1O (stereo partly drawn) [glucosamine 1-phosphate] | positive | –
N[C@H]1C(O)O[C@H](COP(=O)(O)O)[C@@H](O)[C@@H]1O (stereo partly drawn) [glucosamine 6-phosphate] | positive | –
Nc1nc2c(ncn2[C@@H]2O[C@H](CO)[C@H]3OP(=O)(O)O[C@H]32)c(=O)[nH]1 [guanosine 2′:3′-cyclic monophosphate] | positive | –
Nc1nc2c(ncn2[C@@H]2O[C@H](CO)[C@@H](OP(=O)(O)O)[C@H]2O)c(=O)[nH]1 [guanosine 3′-monophosphate] | positive | –
Nc1nc2c(ncn2[C@@H]2O[C@@H]3COP(=O)(O)O[C@H]3[C@H]2O)c(=O)[nH]1 [guanosine 3′:5′-cyclic monophosphate] | not suitable | –
NCCS(=O)O [hypotaurine] | – | positive
O=P(O)(O)O[C@H]1[C@H](OP(=O)(O)O)[C@@H](OP(=O)(O)O)[C@H](OP(=O)(O)O)[C@@H](OP(=O)(O)O)[C@H]1OP(=O)(O)O [inositol hexaphosphate] | not suitable | –
O=S(=O)(O)CCO [isethionate] | – | positive
N[C@@H](CSC[C@H](N)C(=O)O)C(=O)O [lanthionine] | – | positive
O=P(O)(O)OC1O[C@H](CO)[C@@H](O)[C@H](O)[C@@H]1O (stereo partly drawn) [mannose 1-phosphate] | positive | –
O=C[C@@H](O)[C@@H](O)[C@H](O)[C@H](O)COP(=O)(O)O [mannose 6-phosphate] | positive | –
O=P(O)(O)CP(=O)(O)O [methylene diphosphonic acid] | not suitable | –
O=[N+]([O-])c1ccc(OP(=O)(O)O)cc1 [nitrophenyl phosphate] | not suitable | –
CN(CC(=O)O)C(=N)NP(=O)(O)O [phosphocreatine] | positive | –
C=C(OP(=O)(O)O)C(=O)O [phosphoenol pyruvate] | positive | –

Compound | suitability as phosphorus source (growth, purple color) | suitability as sulfur source (growth, purple color)
O=C(O)COP(=O)(O)O [phosphoglycolic acid] | positive | –
O=C(O)CP(=O)(O)O [phosphonoacetic acid] | not suitable | –
O=P(O)(O)OP(=O)(O)O [pyrophosphate] | not suitable | –
NCCS(=O)(=O)O [taurine] | – | positive
C[C@H](CCC(=O)NCCS(=O)(=O)O)[C@H]1CC[C@H]2[C@@H]3[C@H](O)C[C@@H]4C[C@H](O)CC[C@]4(C)[C@H]3C[C@H](O)[C@]12C [taurocholic acid] | – | positive
O=S1(=O)CCCC1 [tetramethylene sulfone] | – | not suitable
O=S(=O)(O)SSS(=O)(=O)O [tetrathionate] | – | positive
O=C(O)CS [thioglycolic acid] | – | not suitable
OP(O)(O)=S [thiophosphate] | positive | positive
O=S(O)(O)=S [thiosulfate] | – | positive
Cc1cn([C@H]2C[C@@H]3OP(=O)(O)OC[C@H]3O2)c(=O)[nH]c1=O [thymidine 3′:5′-cyclic monophosphate] | not suitable | –
Cc1cn([C@H]2C[C@H](O)[C@@H](COP(=O)(O)O)O2)c(=O)[nH]c1=O [thymidine 5′-monophosphate] | positive | –
Cc1cn([C@H]2C[C@H](OP(=O)(O)O)[C@@H](CO)O2)c(=O)[nH]c1=O [thyrnidine 3′-monophosphate] | positive | –
O=P(O)(O)OP(=O)(O)OP(=O)(O)O [tripolyphosphate] | not suitable | –
O=c1ccn([C@@H]2O[C@H](CO)[C@@H](O)[C@H]2OP(=O)(O)O)c(=O)[nH]1 [uridine 2′-monophosphate] | positive | –
O=c1ccn([C@@H]2O[C@H](CO)[C@H]3OP(=O)(O)O[C@H]32)c(=O)[nH]1 [uridine 2′:3′-cyclic monophosphate] | positive | –
O=c1ccn([C@@H]2O[C@@H]3COP(=O)(O)O[C@H]3[C@H]2O)c(=O)[nH]1 [uridine 3′:5′-cyclic monophosphate] | not suitable | –
O=P(O)(O)OC(CO)CO [β-glycerophosphate] | positive | –
O-acetyle-serine with sodium sulfate | – | positive
phosphatidyl glycerol | not suitable | –

— US9274101B2 (BIOLOG, Inc., priority 2001, dated 2016)
